# Source: US11229633B2, “Arimoclomol formulation” (Orphazyme A/S, priority 2014, dated 2022)
# “Also recorded” adds a separate entry of the source.
# Columns and labels:
# [1] = cited from earlier work
# OATP1B1 = target: T1, OATP1B1 (Homo sapiens, UniProt Q9Y6L6); assay: Uptake transporter inhibition assay, OATP1B1; format: in vitro ADME; parameters: expressed in transfected cells; host or cells: HEK293 (protocol UPT-HEK293-OATP1B1-E217βG; control: mock-transfected HEK293 FT); key to maximum inhibition: NIO: No interaction observed; details: for maximum inhibition: 0.3-300 μM
# T1 sequence (Q9Y6L6 1-691): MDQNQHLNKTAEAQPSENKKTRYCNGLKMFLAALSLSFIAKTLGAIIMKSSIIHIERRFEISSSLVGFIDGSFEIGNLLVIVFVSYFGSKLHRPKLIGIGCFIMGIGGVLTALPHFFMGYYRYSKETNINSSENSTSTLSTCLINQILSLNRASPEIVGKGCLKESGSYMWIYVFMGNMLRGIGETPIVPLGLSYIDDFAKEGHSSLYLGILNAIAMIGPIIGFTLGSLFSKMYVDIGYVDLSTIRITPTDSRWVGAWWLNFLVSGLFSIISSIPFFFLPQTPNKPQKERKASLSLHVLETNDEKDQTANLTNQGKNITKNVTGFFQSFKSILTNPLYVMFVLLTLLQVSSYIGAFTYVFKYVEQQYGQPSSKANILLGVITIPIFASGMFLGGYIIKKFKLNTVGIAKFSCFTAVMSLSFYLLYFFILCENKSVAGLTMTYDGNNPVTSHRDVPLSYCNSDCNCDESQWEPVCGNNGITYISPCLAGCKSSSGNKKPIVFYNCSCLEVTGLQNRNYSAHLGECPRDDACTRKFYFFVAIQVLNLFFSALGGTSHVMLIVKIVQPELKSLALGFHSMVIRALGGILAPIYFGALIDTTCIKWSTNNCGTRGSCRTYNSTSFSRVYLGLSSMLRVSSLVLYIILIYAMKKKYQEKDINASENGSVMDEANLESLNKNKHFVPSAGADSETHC
# Method: (§1) Uptake experiments were performed using CHO, MDCKII, or HEK293 cells stably expressing the respective uptake transporters.
# (§2) Cells were cultured at 37±1° C. in an atmosphere of 95:5 air:CO2 and were plated onto standard 96-well tissue culture plates at the cell number described in table 4.
# (§3) Before the experiment, the medium was removed and the cells were washed twice with 100 μl of HK buffer at pH 7.4 (prepared from Sigma chemicals, Sigma-Aldrich, St Louis, Mo.). Uptake experiments were carried out at 37±1° C. in 50 μl of HK buffer (pH 7.4) containing the probe substrate and the TA or vehicle control (water).
# (§4) After the experiment, cells were washed twice with ice cold, 100 μl of HK buffer and lysed with 50 μl of 0.1 M NaOH (1 mM CaCl2) in 5% SDS in the case of OATP1B3). Fluo-3 transport (OATP1B3) was determined by measuring fluorescence using 485 nm and 520 nm as the excitation and emission wavelengths, respectively. Radiolabelled probe substrate transport was determined by measuring an aliquot (35 μl) from each well for liquid scintillation counting.
# (§5) Uptake of the probe substrate in control cells provided background activity values for all data points. Incubation without TA or reference inhibitor (solvent only) provided 100% activity values. A reference inhibitor served as positive control for inhibition.
# (§6) The amount of translocated probe substrate was determined for each well in cpm or RFU. Relative activities were calculated from the equation:
# (§7) [formula] A: amount of translocated substrate in the presence of TA in transfected cells B: amount of translocated substrate in the presence of TA in control cells C: amount of translocated substrate in the presence of solvent in transfected cells D: amount of translocated substrate in the presence of solvent in control cells Calculation of Fold Accumulation Values
# (§8) In uptake transporter inhibition assays, the IC50 (μM) was calculated, where applicable. […]
# OATP1B3 = target: T2, OATP1B3 (Homo sapiens, UniProt Q9NPD5); assay: Uptake transporter inhibition assay, OATP1B3; format: in vitro ADME; parameters: expressed in transfected cells; host or cells: CHO (protocol UPT-CHO-OATP1B3-Fluo3; control: parental CHO-K1; 5 mM Na+ butyrate induction); key to maximum inhibition: NIO: No interaction observed; details: for maximum inhibition: 0.3-300 μM
# T2 sequence (Q9NPD5 1-702): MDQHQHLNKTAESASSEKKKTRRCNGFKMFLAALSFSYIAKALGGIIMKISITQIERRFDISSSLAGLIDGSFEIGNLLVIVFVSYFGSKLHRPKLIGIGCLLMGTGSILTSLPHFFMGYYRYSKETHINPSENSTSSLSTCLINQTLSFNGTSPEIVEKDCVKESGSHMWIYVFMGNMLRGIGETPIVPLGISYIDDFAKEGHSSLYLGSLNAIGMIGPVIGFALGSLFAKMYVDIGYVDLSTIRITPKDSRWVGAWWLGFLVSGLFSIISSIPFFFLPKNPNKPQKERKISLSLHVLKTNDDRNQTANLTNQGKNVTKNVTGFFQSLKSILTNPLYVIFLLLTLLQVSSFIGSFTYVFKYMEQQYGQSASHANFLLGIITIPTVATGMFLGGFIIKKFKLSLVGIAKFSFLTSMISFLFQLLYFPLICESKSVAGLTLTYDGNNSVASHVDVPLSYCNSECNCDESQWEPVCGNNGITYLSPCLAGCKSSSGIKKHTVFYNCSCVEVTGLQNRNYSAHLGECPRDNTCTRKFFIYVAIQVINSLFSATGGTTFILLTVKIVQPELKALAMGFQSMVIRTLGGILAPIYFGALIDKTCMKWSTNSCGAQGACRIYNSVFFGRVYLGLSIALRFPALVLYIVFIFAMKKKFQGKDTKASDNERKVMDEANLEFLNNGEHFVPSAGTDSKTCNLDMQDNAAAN
# Method: as §1, §2, §3, §4, §5, §6, §7, §8
# [2] = Solubility of test article in water and methanol; format: physicochemical; details: 25° C.
smiles,measurement,setting,value
"[O-][n+]1cccc(C(Cl)=NOCC(O)CN2CCCCC2)c1 (centres unmarked) [Arimoclomol, N-[2-hydroxy-3-(1-piperidinyl)-propoxy]-pyridine-1-oxide-3-carboximidoyl chloride]",maximum tolerated dose,[1]; healthy human volunteers,no maximum tolerated dose has been reached
same,safety and tolerability,"[1]; oral single ascending or repeated doses 50 to 800 mg, 261 subjects",safe and well-tolerated
same,serum creatinine levels,[1]; single- and multiple-dose Phase I studies,slight and reversible increases
same,maximum inhibition,OATP1B1; Table 2,NIO
same,maximum inhibition,OATP1B1; Table 5,NIO
same,Influence on OATP1B1-mediated probe substrate accumulation (in words),OATP1B1; applied concentrations,did not influence; also recorded: not an inhibitor
same,maximum inhibition,OATP1B3; Table 2,NIO
same,maximum inhibition,OATP1B3; Table 5,NIO
same,Influence on OATP1B3-mediated probe substrate accumulation (in words),OATP1B3; applied concentrations,did not influence; also recorded: not an inhibitor
same,Solubility,[2]; methanol,0.4 g/100 mL
same,Solubility,[2]; water,14 g/100 mL
